Measurements from article PMC12039745, “Structure and inhibition of diaminopimelic acid epimerase by slow‐binding α‐methyl amino acids” (Protein Science : A Publication of the Protein Society, 2025).
One block for each molecule: values may come before it.

What was measured:
[1] = molecular target: T1, DAP epimerase (DapF); experiment: X-ray crystal structure ([…] Å); DAP dehydrogenase-coupled inhibition assay after […] h incubation; type: biochemical, Anabaena sp. YBS01
T1 construct: C-terminal hexahistidine tag

[2] = molecular target: T2, DAP epimerase (DapF) (Arabidopsis thaliana, UniProt Q9LFG2); experiment: DAP dehydrogenase-coupled assay at […] inhibitor, time-dependent pre-incubation; type: biochemical
T2 sequence (Q9LFG2 52-362): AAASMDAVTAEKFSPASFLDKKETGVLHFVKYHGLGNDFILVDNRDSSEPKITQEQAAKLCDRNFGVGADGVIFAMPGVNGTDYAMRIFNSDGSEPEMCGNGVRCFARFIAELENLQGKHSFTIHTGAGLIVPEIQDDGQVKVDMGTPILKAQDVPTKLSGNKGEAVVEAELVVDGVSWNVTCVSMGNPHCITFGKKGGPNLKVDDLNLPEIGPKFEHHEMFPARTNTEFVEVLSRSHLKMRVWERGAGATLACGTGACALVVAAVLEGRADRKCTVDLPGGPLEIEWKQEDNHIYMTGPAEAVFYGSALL

[3] = molecular target: T1, DAP epimerase (DapF); experiment: DAP dehydrogenase-coupled assay, […] h pre-incubation, slow-binding; type: biochemical, Anabaena sp. YBS01
[4] = substrate: N[C@@H](CCC[C@H](N)C(=O)O)C(=O)O; experiment: purified protein

IC50 [1]: 160 µM
Molecule: C[C@@](N)(CCC[C@H](N)C(=O)O)C(=O)O [D,L-α-methylDAP, (2R,6S)‐2,6‐diamino‐2‐methylheptanedioic acid]
DAP dehydrogenase-coupled assay at 250 μM inhibitor, time-dependent pre-incubati [2]: A. thaliana DapF behaved similarly to Anabaena DapF and activity decreased with increasing length of pre‐incubation

IC50 [3]: 120 µM
Molecule: C[C@](N)(CCC[C@H](N)C(=O)O)C(=O)O [L,L-α-methylDAP]
DAP dehydrogenase-coupled assay at 250 μM inhibitor, time-dependent pre-incubati [2]: A. thaliana DapF behaved similarly to Anabaena DapF and activity decreased with increasing length of pre‐incubation

B1: DAP epimerase (DapF) (Arabidopsis thaliana) (protein)
chain: T2 sequence (Q9LFG2 52-362)
Km [4]: 68 µM
